Experimental data reported in PubChem BioAssay AID248 (DTP/NCI, 2004).
Inconclusive results and toxic doses are left out. Cut-off read from the data, not from the text of the source: active = T/C of 150% or more; inactive = T/C below 125%.

Tested on: L1210 leukemia ip in BDF1 mice, survival T/C
Assay: NCI In Vivo Anticancer Drug Screen. Data for tumor model L1210 Leukemia (intraperitoneal) in B6D2F1 (BDF1) mice
Conditions: endpoint: mean survival time, higher = longer survival
Method in brief: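 Each compound was tested against a transplantable tumor grown in mice. The endpoint was survival, with treated animals benchmarked against vehicle controls as a simple ratio.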

[1] = dose: 25.0 mg/kg/injection, schedule: Q04DX002 (ip), vehicle: saline
[2] = dose: 50.0 mg/kg/injection, schedule: Q04DX002 (ip), vehicle: saline
[3] = dose: 100.0 mg/kg/injection, schedule: Q04DX002 (ip), vehicle: saline
[4] = dose: 50.0 mg/kg/injection, schedule: Q01DX009 (ip), vehicle: Klucel (hydroxypropylcellulose) (HPC)
[5] = dose: 100.0 mg/kg/injection, schedule: Q01DX009 (ip), vehicle: Klucel (hydroxypropylcellulose) (HPC)
[6] = dose: 100.0 mg/kg/injection, schedule: Q04DX003 (ip), vehicle: Klucel (hydroxypropylcellulose) (HPC)
[7] = dose: 200.0 mg/kg/injection, schedule: Q04DX003 (ip), vehicle: Klucel (hydroxypropylcellulose) (HPC)
[8] = dose: 400.0 mg/kg/injection, schedule: Q04DX003 (ip), vehicle: Klucel (hydroxypropylcellulose) (HPC)
[9] = dose: 100.0 mg/kg/injection, schedule: Q01DX001 (ip), vehicle: saline
[10] = dose: 200.0 mg/kg/injection, schedule: Q01DX001 (ip), vehicle: saline
[11] = dose: 400.0 mg/kg/injection, schedule: Q01DX001 (ip), vehicle: saline
[12] = dose: 200.0 mg/kg/injection, schedule: Q01DX009 (ip), vehicle: Klucel (hydroxypropylcellulose) (HPC)
[13] = dose: 25.0 mg/kg/injection, schedule: Q01DX009 (ip), vehicle: saline with Tween-80

Measured: T/C

COC1OC2CSC(=S)OC2C(OC)C1OC (centres undefined)
inactive: [1] 100 % of control | [2] 92 % of control | [3] 103 % of control | dose: 200.0 mg/kg/injection, schedule: Q04DX002 (ip), vehicle: saline 102 % of control | dose: 400.0 mg/kg/injection, schedule: Q04DX002 (ip), vehicle: saline 102 % of control

O=C1N(Cl)C(=O)C(c2ccccc2)(c2ccc(F)cc2)N1Cl (centres undefined)
inactive: [4] 94 % of control | [5] 94 % of control | [6] 96 % of control | [7] 94 % of control

CC(C)CCSc1ccccc1
inactive: dose: 18.75 mg/kg/injection, schedule: Q01DX009 (ip), vehicle: acetone 91 % of control | dose: 37.5 mg/kg/injection, schedule: Q01DX009 (ip), vehicle: acetone 92 % of control | dose: 37.5 mg/kg/injection, schedule: Q04DX003 (ip), vehicle: acetone 100 % of control | dose: 75.0 mg/kg/injection, schedule: Q01DX001 (ip), vehicle: acetone 100 % of control | dose: 75.0 mg/kg/injection, schedule: Q01DX009 (ip), vehicle: acetone 91 % of control | dose: 75.0 mg/kg/injection, schedule: Q04DX003 (ip), vehicle: acetone 90 % of control | dose: 150.0 mg/kg/injection, schedule: Q01DX001 (ip), vehicle: acetone 94 % of control | dose: 150.0 mg/kg/injection, schedule: Q04DX003 (ip), vehicle: acetone 95 % of control

CSc1ccc(/C=N/NC(N)=S)c(SC)n1
inactive: [6] 98 % of control | [7] 98 % of control | [8] 96 % of control

CCOC(Nc1cc(Cl)cc(Cl)c1)C(=O)c1ccccc1 (centres undefined)
inactive: [9] 97 % of control | [10] 91 % of control | [11] 91 % of control

CN(CCC(=O)O)S(=O)(=O)c1ccccc1
inactive: [9] 103 % of control | [10] 97 % of control | [11] 89 % of control

C#CCCCCC#C
inactive: [4] 98 % of control | [5] 106 % of control | [6] 98 % of control | [12] 97 % of control | [7] 91 % of control | [8] 86 % of control

CCOP(=O)(CCBr)Oc1ccc([N+](=O)[O-])cc1 (centres undefined)
inactive: dose: 0.5 mg/kg/injection, schedule: Q01DX001 (ip), vehicle: saline 97 % of control | dose: 1.0 mg/kg/injection, schedule: Q01DX001 (ip), vehicle: saline 97 % of control | dose: 2.0 mg/kg/injection, schedule: Q01DX001 (ip), vehicle: saline 103 % of control | dose: 4.0 mg/kg/injection, schedule: Q01DX001 (ip), vehicle: saline 107 % of control

COc1ccc(OC)c2c1CC1CC(=O)OC21C (centres undefined)
inactive: [5] 97 % of control | [6] 97 % of control | [12] 92 % of control | [7] 97 % of control | dose: 400.0 mg/kg/injection, schedule: Q01DX009 (ip), vehicle: Klucel (hydroxypropylcellulose) (HPC) 97 % of control | [8] 97 % of control

CC1NCCNCCNCCNC(C)c2cccc1n2 (centres undefined)
inactive: [1] 90 % of control | [2] 107 % of control | [3] 89 % of control

c1ccc(CC(Cc2ccccc2)NC2=NCCO2)cc1
inactive: dose: 6.25 mg/kg/injection, schedule: Q01DX009 (ip), vehicle: saline with Tween-80 106 % of control | dose: 6.25 mg/kg/injection, schedule: Q04DX003 (ip), vehicle: saline with Tween-80 107 % of control | dose: 12.5 mg/kg/injection, schedule: Q01DX009 (ip), vehicle: saline with Tween-80 94 % of control | dose: 12.5 mg/kg/injection, schedule: Q04DX003 (ip), vehicle: saline with Tween-80 106 % of control | [13] 89 % of control | dose: 25.0 mg/kg/injection, schedule: Q04DX003 (ip), vehicle: saline with Tween-80 102 % of control

O/N=C(\c1ccccc1)C(O)c1ccccc1 (centres undefined)
inactive: dose: 50.0 mg/kg/injection, schedule: Q01DX001 (ip), vehicle: carboxymethylcellulose (CMC) 113 % of control | dose: 100.0 mg/kg/injection, schedule: Q01DX001 (ip), vehicle: carboxymethylcellulose (CMC) 105 % of control | dose: 200.0 mg/kg/injection, schedule: Q01DX001 (ip), vehicle: carboxymethylcellulose (CMC) 105 % of control | dose: 400.0 mg/kg/injection, schedule: Q01DX001 (ip), vehicle: carboxymethylcellulose (CMC) 102 % of control

CN(C)Cc1ccc(N)cc1
inactive: dose: 10.0 mg/kg/injection, schedule: Q01DX009 (ip), vehicle: water 107 % of control | dose: 20.0 mg/kg/injection, schedule: Q01DX009 (ip), vehicle: water 105 % of control | dose: 40.0 mg/kg/injection, schedule: Q01DX009 (ip), vehicle: water 107 % of control | dose: 50.0 mg/kg/injection, schedule: Q01DX009 (ip), vehicle: water 91 % of control | dose: 80.0 mg/kg/injection, schedule: Q01DX009 (ip), vehicle: water 96 % of control | dose: 100.0 mg/kg/injection, schedule: Q01DX009 (ip), vehicle: water 88 % of control | dose: 100.0 mg/kg/injection, schedule: Q04DX003 (ip), vehicle: water 100 % of control | dose: 200.0 mg/kg/injection, schedule: Q04DX003 (ip), vehicle: water 102 % of control

CCCCN(CCCC)C(=O)C1C=C2c3cccc4[nH]cc(c34)CC2N(C#N)C1 (centres undefined)
inactive: [13] 97 % of control | dose: 50.0 mg/kg/injection, schedule: Q01DX009 (ip), vehicle: saline with Tween-80 91 % of control | dose: 100.0 mg/kg/injection, schedule: Q01DX009 (ip), vehicle: saline with Tween-80 94 % of control | dose: 100.0 mg/kg/injection, schedule: Q04DX003 (ip), vehicle: saline with Tween-80 101 % of control | dose: 200.0 mg/kg/injection, schedule: Q01DX009 (ip), vehicle: saline with Tween-80 87 % of control | dose: 200.0 mg/kg/injection, schedule: Q04DX003 (ip), vehicle: saline with Tween-80 100 % of control | dose: 400.0 mg/kg/injection, schedule: Q04DX003 (ip), vehicle: saline with Tween-80 96 % of control

COc1cccc(/C=C/[N+](=O)[O-])c1OC
inactive: dose: 17.5 mg/kg/injection, schedule: Q01DX009 (ip), vehicle: saline with Tween-80 90 % of control | dose: 35.0 mg/kg/injection, schedule: Q01DX009 (ip), vehicle: saline with Tween-80 101 % of control | dose: 50.0 mg/kg/injection, schedule: Q01DX001 (ip), vehicle: other 103 % of control | dose: 50.0 mg/kg/injection, schedule: Q01DX009 (ip), vehicle: saline 107 % of control | dose: 70.0 mg/kg/injection, schedule: Q01DX009 (ip), vehicle: saline with Tween-80 95 % of control | dose: 100.0 mg/kg/injection, schedule: Q01DX001 (ip), vehicle: other 97 % of control | dose: 100.0 mg/kg/injection, schedule: Q04DX003 (ip), vehicle: saline 108 % of control | dose: 200.0 mg/kg/injection, schedule: Q01DX001 (ip), vehicle: other 103 % of control | dose: 200.0 mg/kg/injection, schedule: Q04DX003 (ip), vehicle: saline 100 % of control
